assay: Protection against Bacillus anthracis lethal toxin-mediated cytotoxicity in mouse RAW264.7 cells assessed as change in viability after 24 hrs by WST1 dye reduction assay

SMILES	IC50
CN(C)CCCn1cc(C2=C(c3c[nH]c4ccccc34)C(=O)NC2=O)c2ccccc21 [2-[1-(3-dimethylaminopropyl)-indol-3-yl]-3-(indol-3-yl)maleimide]	1500 nM
CCCCCCCCCCCCC/C=C/[C@@H](O)[C@H](CO)N(C)C [(E)-(2S,3R)-2-Dimethylamino-octadec-4-ene-1,3-diol]	2300 nM
CC(C)COC[C@H](CN(Cc1ccccc1)c1ccccc1)N1CCCC1	4800 nM

From BindingDB's records for doi:10.1128/AAC.01184-06 (University of California, 2007)
